Reference: US20240398699A1 (COSMO TECHNOLOGIES LTD., priority 2017, published 2024)
Values after ≈ are worked out from the molar mass of the structure shown. Like-named read-outs stand apart in the source and are kept apart here.

Columns and labels:
[1] = system: Methanobrevibacter smithii (DSMZ 11975); experiment: MIC (Minimum Inhibiting Concentration) on bacterial strain; assay type: cell-based
[2] = Safety and tolerability in healthy volunteers; assay type: in vivo, human
[3] = system: NFκB transcriptional activity; experiment: NFκB luciferase reporter cell line stimulated with PMA, TNFα or LPS; assay type: cell-based; conditions: for IC50: 24 hr incubation
Procedure: To establish that NFκB inhibition occurs upon rifamycin-induced PXR activation, a reporter cell line expressing full length NFκB and harboring luciferase reporter gene functionally linked to upstream NFκB genetic response elements, was stimulated with either PMA, TNFα or LPS to induce NFκB. Rifamycin or rifaximin were dose-titrated onto these stimulated cells. After 24 hr incubation, luminescence correlating to NFκB transcriptional activity was quantified.

[4] = system: NFkB transcription factor; experiment: NFkB reporter assay (Indigo Biosciences), antagonist mode, TNFα stimulated human kidney epithelial cells; assay type: cell-based; conditions: for IC50: Homo sapiens, Epithelial cell, 30 ng/mL TNFα, 24 hours, 2 independent experiments, read-out: Antagonism of NFkB activity IC50 Molar (95% CI range)
Procedure: The NFkB nuclear receptor assay system from Indigo Biosciences utilizes human kidney epithelial cells transiently transfected with an NF-kB reporter. The NFkB biologic activity measured as transcriptional activity from these reporter cells demands the same orchestration of all intracellular molecular interactions and events that can be expected to occur in vivo. Cells were treated under antagonist mode in the presence of 30 ng/mL TNFα to stimulate the NFkB inflammatory cascade. […] After 24 hours, luminescence which is proportional to NFkB transcriptional activity was quantitated. […] The p value was calculated using Prism parametric, paired t test analysis.

[5] = system: IL1β-induced synthesis of IL-8 in colonic epithelial cells; experiment: IL1β-induced IL-8 synthesis in colonic epithelial cells; assay type: cell-based
From the text: PMA or diacyl glycerol-activated PKC is important for T cell receptor or IgE-induced NFκB that occurs in immune cells, like T cells and mast cells, respectively. On the other hand, TNF or LPS-induced NFκB that occurs in colonic epithelial cells requires other signaling factors (TRAFs, TNFR-associated factors). Most importantly, for its relevance in IBS or IBD, NFκB biologic function was confirmed in colonic epithelial cells. […] These cell-dependent requirements for inducing inflammation imply that by acting on various target cells, rifamycin's anti-inflammatory potential is broad because dysregulated immune and epithelial cell interactions contribute to the pathogenesis of several GI disorders.

human PXR = target: T1, human PXR (Homo sapiens, UniProt O75469); experiment: PXR nuclear receptor luciferase reporter assay (Indigo Biosciences), agonist mode; assay type: cell-based; conditions: for EC50: 3 independent experiments, read-out: Agonism of PXR transcriptional activity expressed as EC50 Molar (95% CI range)
T1 construct: host or cells: proprietary human cells engineered to express the hybrid receptor
T1 sequence (O75469 146-433 limits assumed): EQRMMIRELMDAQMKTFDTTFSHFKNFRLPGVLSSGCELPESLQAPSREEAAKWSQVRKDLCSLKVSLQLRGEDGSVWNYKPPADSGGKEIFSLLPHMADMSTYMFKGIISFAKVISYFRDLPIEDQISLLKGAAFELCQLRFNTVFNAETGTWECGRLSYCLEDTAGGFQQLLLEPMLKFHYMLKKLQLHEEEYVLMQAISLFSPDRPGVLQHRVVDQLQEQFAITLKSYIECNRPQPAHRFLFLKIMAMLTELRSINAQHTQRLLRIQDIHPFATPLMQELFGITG
From the text: This assay product from Indigo Biosciences (Pennsylvania, USA) utilizes cells that express a hybrid form of human PXR. The N-terminal sequence encoding the PXR DNA binding domain (DBD) was substituted with that of the yeast GAL4-DBD. The native PXR ligand binding domain (LBD) and other C-terminal domains remain intact and functional. Ligand interaction activates the receptor, causing it to bind to the GAL4 DNA binding sequence, which is functionally linked to a resident luciferase reporter gene. Thus, quantifying changes in luciferase activity in the treated reporter cells provides a sensitive surrogate measure of the changes in PXR activity. The principle application of this reporter assay system is in the screening of test samples to quantify any functional activity, either agonist or antagonist, that they may exert against human PXR. […] The p value was calculated using Prism parametric, paired t test analysis.

[6] = PMA stimulus, read-out: IC50, antagonism of PMA-induced NFκB activity
[7] = up to the highest concentration tested

Q: With `Cc1ncc([N+](=O)[O-])n1CCO` [Metronidazole] as the compound, how does the MIC ([1]; DSMZ11975, read-out: MIC) read?
A: The MIC was 25 µg/mL (≈ 146 µM).

Q: With `NC[C@@H]1O[C@H](O[C@H]2[C@@H](O)[C@H](O[C@@H]3[C@@H](O)[C@H](N)C[C@H](N)[C@H]3O[C@H]3O[C@H](CN)[C@@H](O)[C@H](O)[C@H]3N)O[C@@H]2CO)[C@H](N)[C@@H](O)[C@@H]1O` [Neomycin] as the compound, how does the MIC [1] read?
A: The MIC was over 100 µg/mL.

Q: With `CO[C@H]1/C=C/O[C@@]2(C)Oc3c(C)c([O-])c4c(O)c(cc(O)c4c3C2=O)NC(=O)/C(C)=C\C=C\[C@H](C)[C@H](O)[C@@H](C)[C@@H](O)[C@@H](C)[C@H](OC(C)=O)[C@@H]1C.[Na+]` [Rifamycin SV sodium] as the compound, how does the MIC [1] read?
A: The MIC was under 1 µg/mL.

Q: With `CO[C@H]1/C=C/O[C@@]2(C)Oc3c(C)c(O)c4c(O)c(cc(O)c4c3C2=O)NC(=O)/C(C)=C\C=C\[C@H](C)[C@H](O)[C@@H](C)[C@@H](O)[C@@H](C)[C@H](OC(C)=O)[C@@H]1C` [Rifamycin SV, (2S,12Z,14E,16S,17S,18R,19R,20R,21S,22R,23S,24E)-21-(acetyloxy)-6,9,17,19-tetrahydroxy-23-methoxy-2,4,12,16,18,20,22-heptamethyl-1,11-dioxo-1,2-dihydro-2,7-(epoxypentadeca[1,11,13]trienimino)naphtho[2,1-b]furan-5-ol] as the compound, how does the “change in vital signs, BW, ECGs or laboratory parameters” value ([2]; after treatment, 600 mg t.i.d., 14 days) read?
A: The value was “No significant change”.

Q: And the “change in liver or kidney functions” value ([2]; during the multiple doses treatment)?
A: The value was “No significant change”.

Q: What about the “discontinuation due to AEs” value ([2]; tablets of Example 1, 600 mg t.i.d., 14 days) of the same compound?
A: The value was “no subject discontinued the study due to AEs”.

Q: And the “severe AEs” value ([2]; tablets of Example 1, 600 mg t.i.d., 14 days, 18 healthy subjects)?
A: The value was “No severe AEs were reported”.

Q: And the IC50 ([3]; LPS stimulus, read-out: IC50, antagonism of LPS-induced NFκB activity)?
A: Its IC50 is 3490 nM.

Q: And the “times higher potency than rifaximin, PMA-induced NFκB activity” value ([3]; PMA stimulus)?
A: The value was 6 times.

Q: What about the IC50 [3, 6] of the same compound?
A: Its IC50 is 15.6 nM.

Q: And the IC50 ([3]; TNFα stimulus, read-out: IC50, antagonism of TNFα-induced NFκB activity)?
A: Its IC50 is 14800 nM.

Q: What about the IC50 [4] of the same compound?
A: The IC50 was 23 nM.

Q: And the “times more potent than rifaximin at inhibiting NFkB transcriptional activity” value ([4]; vs rifaximin)?
A: Its value is 4000 times.

Q: And the “IL1β-induced synthesis of IL-8” value [5]?
A: Its value is “significantly inhibited”.

Q: What about the EC50 (human PXR) of the same compound?
A: The EC50 was 6.08 nM.

Q: And the “times more potent than rifaximin in stimulating PXR transcriptional activity” value (human PXR; from rifaximin at 30 μM vs rifamycin SV at 0.3 μM)?
A: Its value is 250 times.

Q: What about the “times more potent than rifampicin (PXR)” value (human PXR; vs rifampicin, positive control) of the same compound?
A: The value was 180 times.

Q: What about the “times more potent than rifaximin at stimulating PXR transcriptional activity” value (human PXR; vs rifaximin) of the same compound?
A: Its value is 200-440 times.

Q: Which results are given for `CO[C@H]1/C=C/O[C@@]2(C)Oc3c(C)c(O)c4c(O)c(c5c(nc6cc(C)ccn65)c4c3C2=O)NC(=O)/C(C)=C\C=C\[C@H](C)[C@H](O)[C@@H](C)[C@@H](O)[C@@H](C)[C@H](OC(C)=O)[C@@H]1C` [Rifaximin]?
A: IC50 [3, 6]: 93.9 nM; inhibition of LPS-induced NFκB activity [3, 7]: did not inhibit; inhibition of TNFα-induced NFκB activity [3, 7]: did not inhibit; IC50 [4]: 83000 nM; MIC ([1]; DSMZ11975, read-out: MIC): 25 µg/mL (≈ 31.8 µM); EC50 (human PXR): 1800 nM; times less potent than rifamycin SV at 0.3 μM (PXR) (human PXR; rifaximin at 30 μM): 2.5 times
